From patent US12303497B2, “Anti-androgens for the treatment of metastatic castration-sensitive prostate cancer” (priority 2019, dated 2025)

System: patients with metastatic castration-sensitive prostate cancer (mCSPC)

In the case of CNC(=O)c1ccc(N2C(=S)N(c3cnc(C#N)c(C(F)(F)F)c3)C(=O)C23CCC3)cc1F [Apalutamide, 4-[7-(6-cyano-5-trifluoromethylpyridin-3-yl)-8-oxo-6-thioxo-5,7-diazaspiro[3.4]oct-5-yl]-2-fluoro-N-methylbenzamide], the “Grade ≥3 rash led to discontinuation” value (7 patients) is reported as 1.3%, the “Skin rash led to treatment discontinuation” value (12 patients) is reported as 2.3% and the “Skin rash led to dose reduction” value (28 patients) is reported as 5.3%. The “Adverse events led to discontinuation” value (42 patients) was 8.0%, the “Skin rash led to dose interruption” value (44 patients) was 8.4% and the “AE leading to discontinuation: Alanine aminotransferase increased” value (All Grades) was 0 no. (%). For the same compound, the “AE leading to discontinuation: Anxiety” value (All Grades) was 1 (0.2) no. (%), the “AE leading to discontinuation: Atrial fibrillation” value (All Grades) was 1 (0.2) no. (%) and the “AE leading to discontinuation: Cardiac failure” value (All Grades) was 0 no. (%). The “AE leading to discontinuation: Cardio-respiratory arrest” value (All Grades) was 1 (0.2) no. (%), the “AE leading to discontinuation: Cardiogenic shock” value (All Grades) was 1 (0.2) no. (%) and the “AE leading to discontinuation: Cerebrovascular disorder” value (All Grades) was 1 (0.2) no. (%). For the same compound, the “AE leading to discontinuation: Cognitive disorder” value (All Grades) was 0 no. (%), the “AE leading to discontinuation: Dehydration” value (All Grades) was 1 (0.2) no. (%) and the “AE leading to discontinuation: Dyspnea” value (All Grades) was 0 no. (%). The “AE leading to discontinuation: Euphoric mood” value (All Grades) was 1 (0.2) no. (%), the “AE leading to discontinuation: Fatigue” value (All Grades) was 4 (0.8) no. (%) and the “AE leading to discontinuation: Hot flush” value (All Grades) was 1 (0.2) no. (%). For the same compound, the “AE leading to discontinuation: Hypothermia” value (All Grades) was 0 no. (%), the “AE leading to discontinuation: Infections” value (All Grades) was 1 (0.2) no. (%) and the “AE leading to discontinuation: Intracranial hemorrhage” value (All Grades) was 0 no. (%). The “AE leading to discontinuation: Ischemic cardiac events” value (All Grades) was 2 (0.4) no. (%), the “AE leading to discontinuation: Large intestinal ulcer perforation” value (All Grades) was 1 (0.2) no. (%) and the “AE leading to discontinuation: Lip swelling” value (All Grades) was 1 (0.2) no. (%). The “AE leading to discontinuation: Loss of consciousness” value (All Grades) was 0 no. (%), the “AE leading to discontinuation: New cancer neoplasm” value (All Grades) was 7 (1.3) no. (%) and the “AE leading to discontinuation: Parkinson's disease” value (All Grades) was 1 (0.2) no. (%). For the same compound, the “AE leading to discontinuation: Pleural effusion” value (All Grades) was 0 no. (%), the “AE leading to discontinuation: Pulmonary edema” value (All Grades) was 0 no. (%) and the “AE leading to discontinuation: Pulmonary embolism” value (All Grades) was 1 (0.2) no. (%). The “AE leading to discontinuation: Radiculopathy” value (All Grades) was 1 (0.2) no. (%), the “AE leading to discontinuation: Rash (grouped term)” value (All Grades) was 12 (2.3) no. (%) and the “AE leading to discontinuation: Respiratory failure” value (All Grades) was 0 no. (%). For the same compound, the “AE leading to discontinuation: Seizure” value (All Grades) was 2 (0.4) no. (%), the “AE leading to discontinuation: Subdural hemorrhage” value (All Grades) was 0 no. (%) and the “AE leading to discontinuation: Sudden cardiac death” value (All Grades) was 1 (0.2) no. (%). The “AE leading to discontinuation: Sudden death” value (All Grades) was 0 no. (%), the “AE leading to discontinuation: Suicide” value (All Grades) was 0 no. (%) and the “AE leading to dose interruption: Acute kidney injury” value (All Grades) was 1 (0.2) no. (%). The “AE leading to dose interruption: Acute respiratory failure” value (All Grades) was 1 (0.2) no. (%), the “AE leading to dose interruption: Allergy to chemicals” value (All Grades) was 1 (0.2) no. (%) and the “AE leading to dose interruption: Anemia” value (All Grades) was 2 (0.4) no. (%). For the same compound, the “AE leading to dose interruption: Angina unstable” value (All Grades) was 0 no. (%), the “AE leading to dose interruption: Anxiety” value (All Grades) was 2 (0.4) no. (%) and the “AE leading to dose interruption: Arthralgia” value (All Grades) was 2 (0.4) no. (%). For the same compound, the “AE leading to dose interruption: Aspartate aminotransferase or alanine aminotransferase increased” value (All Grades) was 7 (1.3) no. (%), the “AE leading to dose interruption: Asthenia” value (All Grades) was 3 (0.6) no. (%) and the “AE leading to dose interruption: Atrial fibrillation” value (All Grades) was 1 (0.2) no. (%). The “AE leading to dose interruption: Bile duct obstruction” value (All Grades) was 0 no. (%), the “AE leading to dose interruption: Blood alkaline phosphatase increased” value (All Grades) was 1 (0.2) no. (%) and the “AE leading to dose interruption: Cardiac amyloidosis” value (All Grades) was 0 no. (%). The “AE leading to dose interruption: Cardiac disorder” value (All Grades) was 0 no. (%), the “AE leading to dose interruption: Cardiac failure” value (All Grades) was 0 no. (%) and the “AE leading to dose interruption: Cardiac failure congestive” value (All Grades) was 1 (0.2) no. (%). For the same compound, the “AE leading to dose interruption: Cerebrovascular accident” value (All Grades) was 1 (0.2) no. (%), the “AE leading to dose interruption: Cheilitis” value (All Grades) was 1 (0.2) no. (%) and the “AE leading to dose interruption: Chronic hepatitis” value (All Grades) was 1 (0.2) no. (%). The “AE leading to dose interruption: Chronic obstructive pulmonary disease” value (All Grades) was 2 (0.4) no. (%), the “AE leading to dose interruption: Cognitive disorder” value (All Grades) was 1 (0.2) no. (%) and the “AE leading to dose interruption: Confusional state” value (All Grades) was 1 (0.2) no. (%). For the same compound, the “AE leading to dose interruption: Constipation” value (All Grades) was 1 (0.2) no. (%), the “AE leading to dose interruption: Decreased appetite” value (All Grades) was 2 (0.4) no. (%) and the “AE leading to dose interruption: Dehydration” value (All Grades) was 0 no. (%). For the same compound, the “AE leading to dose interruption: Depression” value (All Grades) was 1 (0.2) no. (%), the “AE leading to dose interruption: Diabetes mellitus” value (All Grades) was 1 (0.2) no. (%) and the “AE leading to dose interruption: Diarrhea” value (All Grades) was 1 (0.2) no. (%). The “AE leading to dose interruption: Diplegia” value (All Grades) was 0 no. (%), the “AE leading to dose interruption: Dizziness” value (All Grades) was 1 (0.2) no. (%) and the “AE leading to dose interruption: Dyspnea” value (All Grades) was 1 (0.2) no. (%). The “AE leading to dose interruption: Dysuria” value (All Grades) was 1 (0.2) no. (%), the “AE leading to dose interruption: Edema” value (All Grades) was 1 (0.2) no. (%) and the “AE leading to dose interruption: Eyelid edema” value (All Grades) was 1 (0.2) no. (%). For the same compound, the “AE leading to dose interruption: Facial edema” value (All Grades) was 1 (0.2) no. (%), the “AE leading to dose interruption: Fall” value (All Grades) was 1 (0.2) no. (%) and the “AE leading to dose interruption: Fatigue” value (All Grades) was 6 (1.1) no. (%). The “AE leading to dose interruption: Febrile neutropenia” value (All Grades) was 1 (0.2) no. (%), the “AE leading to dose interruption: Gamma-glutamyltransferase increased” value (All Grades) was 1 (0.2) no. (%) and the “AE leading to dose interruption: Gastric ulcer perforation” value (All Grades) was 1 (0.2) no. (%). The “AE leading to dose interruption: Gastritis” value (All Grades) was 0 no. (%), the “AE leading to dose interruption: General physical health deterioration” value (All Grades) was 1 (0.2) no. (%) and the “AE leading to dose interruption: Hallucination” value (All Grades) was 1 (0.2) no. (%). The “AE leading to dose interruption: Headache” value (All Grades) was 1 (0.2) no. (%), the “AE leading to dose interruption: Hematoma” value (All Grades) was 1 (0.2) no. (%) and the “AE leading to dose interruption: Hematuria” value (All Grades) was 2 (0.4) no. (%). The “AE leading to dose interruption: Hemorrhage intracranial” value (All Grades) was 1 (0.2) no. (%), the “AE leading to dose interruption: Hemorrhagic erosive gastritis” value (All Grades) was 1 (0.2) no. (%) and the “AE leading to dose interruption: Hepatic cirrhosis” value (All Grades) was 1 (0.2) no. (%). For the same compound, the “AE leading to dose interruption: Hepatic failure” value (All Grades) was 0 no. (%), the “AE leading to dose interruption: Hip fracture” value (All Grades) was 1 (0.2) no. (%) and the “AE leading to dose interruption: Hot flush” value (All Grades) was 1 (0.2) no. (%). The “AE leading to dose interruption: Hydronephrosis” value (All Grades) was 0 no. (%), the “AE leading to dose interruption: Hyperbilirubinemia” value (All Grades) was 1 (0.2) no. (%) and the “AE leading to dose interruption: Hypersensitivity” value (All Grades) was 1 (0.2) no. (%). The “AE leading to dose interruption: Hypertension” value (All Grades) was 6 (1.1) no. (%), the “AE leading to dose interruption: Hypertriglyceridemia” value (All Grades) was 2 (0.4) no. (%) and the “AE leading to dose interruption: Hypokalemia” value (All Grades) was 1 (0.2) no. (%).
